Test results as given in patent publication US20240116985A1, “STAPLED PEPTIDES AND METHODS THEREOF” (priority 2020, published 2024).
pIC50: −log10 of the molar value. Values belong to the compound of their own block, whether it stands above or below them.

Tests used:
[1] = target: T1, full-length beta-Catenin (Uniprot ID P35222) (Homo sapiens, UniProt P35222); experiment: Fluorescence polarization IC50 (beta-catenin / 5FAM-TCF4 10-53 competition); type: binding; settings: fluorescence polarization; read-out: beta-Catenin FP IC50
T1 construct: 10 nM full-length beta-Catenin (Uniprot ID P35222)
T1 sequence (P35222 1-781): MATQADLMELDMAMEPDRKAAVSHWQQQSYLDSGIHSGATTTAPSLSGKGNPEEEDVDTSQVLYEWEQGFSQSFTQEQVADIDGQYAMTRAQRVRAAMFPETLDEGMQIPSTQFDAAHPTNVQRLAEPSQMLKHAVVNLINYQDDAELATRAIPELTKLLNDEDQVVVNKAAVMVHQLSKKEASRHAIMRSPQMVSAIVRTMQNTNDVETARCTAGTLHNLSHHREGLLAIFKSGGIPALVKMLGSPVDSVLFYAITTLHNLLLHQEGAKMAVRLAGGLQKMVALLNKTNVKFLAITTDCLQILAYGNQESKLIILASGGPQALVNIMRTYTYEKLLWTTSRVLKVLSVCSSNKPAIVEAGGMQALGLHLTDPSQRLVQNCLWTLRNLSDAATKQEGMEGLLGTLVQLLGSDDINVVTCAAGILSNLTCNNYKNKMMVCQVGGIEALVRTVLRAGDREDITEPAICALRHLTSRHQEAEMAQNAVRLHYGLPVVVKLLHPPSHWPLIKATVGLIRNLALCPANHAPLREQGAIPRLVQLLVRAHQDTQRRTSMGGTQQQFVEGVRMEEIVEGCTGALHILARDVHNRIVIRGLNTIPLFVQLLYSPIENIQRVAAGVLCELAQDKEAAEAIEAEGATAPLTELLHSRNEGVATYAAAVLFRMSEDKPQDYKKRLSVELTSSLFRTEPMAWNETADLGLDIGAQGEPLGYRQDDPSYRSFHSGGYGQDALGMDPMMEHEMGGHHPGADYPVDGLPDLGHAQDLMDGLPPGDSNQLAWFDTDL

[2] = target: T2, beta-catenin/TCF4 engagement (Homo sapiens, UniProt P35222); experiment: Nano-BRET target engagement assay (B-cat-Halo & TCF4-Luc in HEK293 cells); type: cell-based; settings: absolute IC50; read-out: NanoBRET Abs IC50
T2 construct: expressed in transfected cells; host or cells: HEK293
T2 sequence (P35222 1-781): T1 sequence (P35222 1-781)

SMILES: CC(=O)N1CCC[C@]12CC=CCCCC1(CCCC=CCCCOC(=O)N3CC[C@@](C(=O)N[C@@H](Cc4ccsc4)C(=O)N[C@@H](Cc4csc5ccccc45)C(=O)N[C@@H](CCC(N)=O)C(N)=O)(C3)NC(=O)[C@H](CC(C)C)NC(=O)[C@H](Cc3ccccc3)NC(=O)[C@H](C)NC(=O)[C@H](C)NC(=O)[C@H](CCN(CC(=O)O)C(=O)C3CCN(C)CC3)NC(=O)[C@H](CC(=O)O)NC1=O)NC(=O)[C@H](CC(C)(C)C)NC(=O)[C@H](CC(=O)O)NC2=O (stereo partly drawn) [I-2245, Ac-PL3-Asp-Npg-B5-Asp-[4AcMePip]GAbu-Ala-Ala-Phe-Leu-PyrS2-3Thi-BztA-Gln-NH2]
pIC50 [1]: 7.59 | pIC50 [2]: < 4.70

SMILES: CC(=O)N1CCC[C@]12CC=CCCCC1(CCCC=CCCCOC(=O)N3CC[C@@](C(=O)N[C@@H](Cc4ccsc4)C(=O)N[C@@H](Cc4csc5ccccc45)C(=O)N[C@@H](CCC(N)=O)C(N)=O)(C3)NC(=O)[C@H](CC(C)C)NC(=O)[C@H](Cc3ccccc3)NC(=O)[C@H](C)NC(=O)[C@H](C)NC(=O)[C@H](CCN(CC(=O)O)C(=O)Cc3ccc(C(F)(F)F)cc3)NC(=O)[C@H](CC(=O)O)NC1=O)NC(=O)[C@H](CC(C)(C)C)NC(=O)[C@H](CC(=O)O)NC2=O (stereo partly drawn) [I-2246, Ac-PL3-Asp-Npg-B5-Asp-[4CF3PhAc]GAbu-Ala-Ala-Phe-Leu-PyrS2-3Thi-BztA-Gln-NH2]
pIC50 [1]: 7.57 | pIC50 [2]: 4.89

SMILES: CC(=O)N1CCC[C@]12CC=CCCCC1(CCCC=CCCCOC(=O)N3CC[C@@](C(=O)N[C@@H](Cc4ccsc4)C(=O)N[C@@H](Cc4csc5ccccc45)C(=O)N[C@@H](CCC(N)=O)C(N)=O)(C3)NC(=O)[C@H](CC(C)C)NC(=O)[C@H](Cc3ccccc3)NC(=O)[C@H](C)NC(=O)[C@H](C)NC(=O)[C@H](CCN(CC(=O)O)C(=O)c3c(F)c(F)c(F)c(F)c3F)NC(=O)[C@H](CC(=O)O)NC1=O)NC(=O)[C@H](CC(C)(C)C)NC(=O)[C@H](CC(=O)O)NC2=O (stereo partly drawn) [I-2252, Ac-PL3-Asp-Npg-B5-Asp-[PfBz]GAbu-Ala-Ala-Phe-Leu-PyrS2-3Thi-BztA-Gln-NH2]
pIC50 [1]: 7.51 | pIC50 [2]: 4.76

SMILES: CC(=O)N1CCC[C@]12CC=CCCCC1(CCCC=CCCCOC(=O)N3CC[C@@](C(=O)N[C@@H](Cc4ccsc4)C(=O)N[C@@H](Cc4csc5ccccc45)C(=O)N[C@@H](C)C(N)=O)(C3)NC(=O)[C@H](Cc3ccccc3)NC(=O)[C@H](Cc3ccccc3)NC(=O)[C@H](C)NC(=O)[C@H](C)NC(=O)[C@H](Cc3cccc(C(=O)O)c3)NC(=O)[C@H](CC(=O)O)NC1=O)NC(=O)[C@H](CC(C)(C)C)NC(=O)[C@H](CC(=O)O)NC2=O (stereo partly drawn) [I-2259, Ac-PL3-Asp-Npg-B5-Asp-3COOHF-Ala-Ala-Phe-Phe-PyrS2-3Thi-BztA-Ala-NH2]
pIC50 [1]: 7.52 | pIC50 [2]: 5.37

SMILES: CC(=O)N1CCC[C@]12CC=CCCCC1(CCCC=CCCCOC(=O)N3CC[C@@](C(=O)N[C@@H](Cc4ccsc4)C(=O)N[C@@H](Cc4csc5ccccc45)C(=O)N[C@@H](C)C(N)=O)(C3)NC(=O)[C@H](CC(C)C)NC(=O)[C@H](Cc3cccc(F)c3)NC(=O)[C@H](C)NC(=O)[C@H](C)NC(=O)[C@H](Cc3cccc(C(=O)O)c3)NC(=O)[C@H](CC(=O)O)NC1=O)NC(=O)[C@H](CC(C)(C)C)NC(=O)[C@H](CC(=O)O)NC2=O (stereo partly drawn) [I-2260, Ac-PL3-Asp-Npg-B5-Asp-3COOHF-Ala-Ala-3FF-Leu-PyrS2-3Thi-BztA-Ala-NH2]
pIC50 [1]: 7.68 | pIC50 [2]: 5.51

SMILES: CC(=O)N1CCC[C@]12CC=CCCCC1(CCCC=CCCCOC(=O)N3CC[C@@](C(=O)N[C@@H](Cc4cccc(F)c4)C(=O)N[C@@H](Cc4csc5ccccc45)C(=O)N[C@@H](C)C(N)=O)(C3)NC(=O)[C@H](CC(C)C)NC(=O)[C@H](Cc3ccccc3)NC(=O)[C@H](C)NC(=O)[C@H](C)NC(=O)[C@H](Cc3cccc(C(=O)O)c3)NC(=O)[C@H](CC(=O)O)NC1=O)NC(=O)[C@H](CC(C)(C)C)NC(=O)[C@H](CC(=O)O)NC2=O (stereo partly drawn) [I-2261, Ac-PL3-Asp-Npg-B5-Asp-3COOHF-Ala-Ala-Phe-Leu-PyrS2-3FF-BztA-Ala-NH2]
pIC50 [1]: 7.47 | pIC50 [2]: 5.19

The next compounds have a higher pIC50 [1] than those just listed; values first:

pIC50 [1]: 7.74 | pIC50 [2]: 4.75
SMILES: CC(=O)N1CCC[C@]12CC=CCCCC1(CCCC=CCCCOC(=O)N3CC[C@@](C(=O)N[C@@H](Cc4ccsc4)C(=O)N[C@@H](Cc4csc5ccccc45)C(=O)N[C@@H](CCC(N)=O)C(N)=O)(C3)NC(=O)[C@H](CC(C)C)NC(=O)[C@H](Cc3ccccc3)NC(=O)[C@H](C)NC(=O)[C@H](C)NC(=O)[C@H](CN(CC(=O)O)C(=O)Cc3c(F)c(F)c(F)c(F)c3F)NC(=O)[C@H](CC(=O)O)NC1=O)NC(=O)[C@H](CC(C)(C)C)NC(=O)[C@H](CC(=O)O)NC2=O (stereo partly drawn) [I-2241, Ac-PL3-Asp-Npg-B5-Asp-[PfPhAc]GA-Ala-Ala-Phe-Leu-PyrS2-3Thi-BztA-Gln-NH2]

pIC50 [1]: 7.89 | pIC50 [2]: 4.67
SMILES: CC(=O)N1CCC[C@]12CC=CCCCC1(CCCC=CCCCOC(=O)N3CC[C@@](C(=O)N[C@@H](Cc4ccsc4)C(=O)N[C@@H](Cc4csc5ccccc45)C(=O)N[C@@H](CCC(N)=O)C(N)=O)(C3)NC(=O)[C@H](CC(C)C)NC(=O)[C@H](Cc3ccccc3)NC(=O)[C@H](C)NC(=O)[C@H](C)NC(=O)[C@H](CN(CC(=O)O)C(=O)c3c(F)c(F)c(F)c(F)c3F)NC(=O)[C@H](CC(=O)O)NC1=O)NC(=O)[C@H](CC(C)(C)C)NC(=O)[C@H](CC(=O)O)NC2=O (stereo partly drawn) [I-2242, Ac-PL3-Asp-Npg-B5-Asp-[PfBz]GA-Ala-Ala-Phe-Leu-PyrS2-3Thi-BztA-Gln-NH2]

pIC50 [1]: 7.82 | pIC50 [2]: 4.60
SMILES: CC(=O)N1CCC[C@]12CC=CCCCC1(CCCC=CCCCOC(=O)N3CC[C@@](C(=O)N[C@@H](Cc4ccsc4)C(=O)N[C@@H](Cc4csc5ccccc45)C(=O)N[C@@H](CCC(N)=O)C(N)=O)(C3)NC(=O)[C@H](CC(C)C)NC(=O)[C@H](Cc3ccccc3)NC(=O)[C@H](C)NC(=O)[C@H](C)NC(=O)[C@H](CCN(CC(=O)O)C(=O)CCCN(C)C)NC(=O)[C@H](CC(=O)O)NC1=O)NC(=O)[C@H](CC(C)(C)C)NC(=O)[C@H](CC(=O)O)NC2=O (stereo partly drawn) [I-2243, Ac-PL3-Asp-Npg-B5-Asp-[NdiMeButC]GAbu-Ala-Ala-Phe-Leu-PyrS2-3Thi-BztA-Gln-NH2]

pIC50 [1]: 8.10 | pIC50 [2]: 5.23
SMILES: CC(=O)N1CCC[C@]12CC=CCCCC1(CCCC=CCCCOC(=O)N3CC[C@@](C(=O)N[C@@H](Cc4ccsc4)C(=O)N[C@@H](Cc4csc5ccccc45)C(=O)N[C@@H](CCC(N)=O)C(N)=O)(C3)NC(=O)[C@H](CC(C)C)NC(=O)[C@H](Cc3ccccc3)NC(=O)[C@H](C)NC(=O)[C@H](C)NC(=O)[C@H](CCN(CC(=O)O)C(=O)c3ccccn3)NC(=O)[C@H](CC(=O)O)NC1=O)NC(=O)[C@H](CC(C)(C)C)NC(=O)[C@H](CC(=O)O)NC2=O (stereo partly drawn) [I-2247, Ac-PL3-Asp-Npg-B5-Asp-[Pic]GAbu-Ala-Ala-Phe-Leu-PyrS2-3Thi-BztA-Gln-NH2]

pIC50 [1]: 8.10 | pIC50 [2]: 4.67
SMILES: CC(=O)N1CCC[C@]12CC=CCCCC1(CCCC=CCCCOC(=O)N3CC[C@@](C(=O)N[C@@H](Cc4ccsc4)C(=O)N[C@@H](Cc4csc5ccccc45)C(=O)N[C@@H](CCC(N)=O)C(N)=O)(C3)NC(=O)[C@H](CC(C)C)NC(=O)[C@H](Cc3ccccc3)NC(=O)[C@H](C)NC(=O)[C@H](C)NC(=O)[C@H](CCN(CC(=O)O)C(=O)c3ccc(CN4CCOCC4)cc3)NC(=O)[C@H](CC(=O)O)NC1=O)NC(=O)[C@H](CC(C)(C)C)NC(=O)[C@H](CC(=O)O)NC2=O (stereo partly drawn) [I-2248, Ac-PL3-Asp-Npg-B5-Asp-[MeMorphBz]GAbu-Ala-Ala-Phe-Leu-PyrS2-3Thi-BztA-Gln-NH2]

pIC50 [1]: 7.82 | pIC50 [2]: 5.19
SMILES: CC(=O)N1CCC[C@]12CC=CCCCC1(CCCC=CCCCOC(=O)N3CC[C@@](C(=O)N[C@@H](Cc4ccsc4)C(=O)N[C@@H](Cc4csc5ccccc45)C(=O)N[C@@H](CCC(N)=O)C(N)=O)(C3)NC(=O)[C@H](CC(C)C)NC(=O)[C@H](Cc3ccccc3)NC(=O)[C@H](C)NC(=O)[C@H](C)NC(=O)[C@H](CCN(CC(=O)O)C(=O)Cc3c(F)c(F)c(F)c(F)c3F)NC(=O)[C@H](CC(=O)O)NC1=O)NC(=O)[C@H](CC(C)(C)C)NC(=O)[C@H](CC(=O)O)NC2=O (stereo partly drawn) [I-2251, Ac-PL3-Asp-Npg-B5-Asp-[PfPhAc]GAbu-Ala-Ala-Phe-Leu-PyrS2-3Thi-BztA-Gln-NH2]

pIC50 [1]: 7.82 | pIC50 [2]: 5.54
SMILES: CC(=O)N1CCC[C@]12CC=CCCCC1(CCCC=CCCCOC(=O)N3CC[C@@](C(=O)N[C@@H](Cc4ccsc4)C(=O)N[C@@H](Cc4csc5ccccc45)C(=O)N[C@@H](C)C(N)=O)(C3)NC(=O)[C@H](CC(C)C)NC(=O)[C@H](Cc3ccccc3)NC(=O)[C@H](C)NC(=O)[C@H](C)NC(=O)[C@H](Cc3cccc(C(=O)O)c3)NC(=O)[C@H](CC(=O)O)NC1=O)NC(=O)[C@H](CC(C)(C)C)NC(=O)[C@H](CC(=O)O)NC2=O (stereo partly drawn) [I-2257, Ac-PL3-Asp-Npg-B5-Asp-3COOHF-Ala-Ala-Phe-Leu-PyrS2-3Thi-BztA-Ala-NH2]
